Experimental data published in patent US6689817B1, “Process for preparing guaifenesin tannate” (Jame Fine Chemicals, Inc., priority 2001, dated 2004).
Like-named read-outs stand apart in the source and are kept apart here.

Tests used:
[1] = Solubility in water and organic solvents (descriptive)
[2] = background statement, cited from earlier work; for solubility in alcohols: alcohols such as methanol, ethanol, isopropanol
[3] = Methylene chloride solubility test of milled guaifenesin tannate powders (Example 4); type: physicochemical
Protocol: Two gram samples of finely milled guaifenesin tannate powders were taken from each of the products prepared in Examples 1-3. Each sample was mixed with 110 g of methylene chloride and was stirred for 10 minutes at ambient temperature. Each mixture was then filtered. The insoluble material was dried and weighed and the filtrate was evaporated to dryness and the residue was weighed The results were as follows: […]

| solubility in alcohols [1] | solubility in methylene chloride [1] | solubility in toluene [1] | solubility in water [1] | Insoluble Ppt. [3] | Soluble Ppt. [3] | Compound | solubility in alcohols [2] | solubility in water [2] | also measured |
| --- | --- | --- | --- | --- | --- | --- | --- | --- | --- |
| soluble | soluble | sparingly soluble | soluble | – | – | COc1ccccc1OCC(O)CO (centres unmarked) [guaifenesin, 3-(2-methoxyphenoxy)-1,2-propanediol] | readily soluble | about 5 wt. % | – |
| soluble | insoluble | insoluble | soluble | – | – | O=C(OC[C@H]1O[C@@H](OC(=O)c2cc(O)c(O)c(OC(=O)c3cc(O)c(O)c(O)c3)c2)[C@H](OC(=O)c2cc(O)c(O)c(OC(=O)c3cc(O)c(O)c(O)c3)c2)[C@@H](OC(=O)c2cc(O)c(O)c(OC(=O)c3cc(O)c(O)c(O)c3)c2)[C@@H]1OC(=O)c1cc(O)c(O)c(OC(=O)c2cc(O)c(O)c(O)c2)c1)c1cc(O)c(O)c(OC(=O)c2cc(O)c(O)c(O)c2)c1 [tannic acid] | highly soluble | highly soluble | solubility in chloroform ([1]; chloroform): insoluble |
| – | – | – | – | – | – | guaifenesin tannate | – | – | solubility in methylene chloride (conclusion from Example 4) [3]: insoluble |
| – | – | – | – | – | – | guaifenesin tannate [Example 1] | – | – | Insoluble Ppt. ([3]; 2 g sample mixed with 110 g methylene chloride, stirred 10 minutes at ambient temperature, filtered, insoluble material dried and weighed): 1.94 g; Soluble Ppt. ([3]; 2 g sample mixed with 110 g methylene chloride, stirred 10 minutes at ambient temperature, filtrate evaporated to dryness, residue weighed): <8 mg |
| – | – | – | – | 1.95 g | <10 mg | guaifenesin tannate [Example 2] | – | – | – |
| – | – | – | – | 1.945 g | <7 mg | guaifenesin tannate [Example 3] | – | – | – |
